Data on three compounds can be found in article PMC10247784, “Physiological activation of human and mouse bitter taste receptors by bile acids” (Communications Biology, 2023).

SMILES strings stand for the structures. Values joined by “and” are separate entries in the source; they are usually repeats but may differ in a detail not shown here. Equal values may be shown once.

This experiment addresses T1, human TAS2R39 (Homo sapiens, UniProt P59534).
T1 construct: expressed in transfected cells; host or cells: HEK293T-Gα16gust44
T1 sequence (P59534 1-338): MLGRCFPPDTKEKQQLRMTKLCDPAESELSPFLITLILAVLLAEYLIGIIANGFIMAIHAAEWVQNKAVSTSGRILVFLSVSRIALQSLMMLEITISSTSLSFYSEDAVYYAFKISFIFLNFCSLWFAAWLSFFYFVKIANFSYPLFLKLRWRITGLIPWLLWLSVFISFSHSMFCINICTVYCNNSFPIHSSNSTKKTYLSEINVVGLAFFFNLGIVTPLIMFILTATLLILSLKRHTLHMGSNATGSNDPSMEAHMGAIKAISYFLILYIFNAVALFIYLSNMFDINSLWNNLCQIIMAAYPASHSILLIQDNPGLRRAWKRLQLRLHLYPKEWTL
Kind of experiment: Calcium imaging assay (FLIPR), HEK293T-Gα16gust44 cells transfected with human TAS2R39. As to conditions: for Efficacy = maximal amplitude (ΔF/F) / Efficacy (maximal amplitude ΔF/F), individual data points / Δ F/F: TAS2R39; for Efficacy = maximal amplitude (ΔF/F) / Efficacy (maximal amplitude ΔF/F), individual data points: bile acids; for Efficacy = maximal amplitude (ΔF/F): mean; for Efficacy (maximal amplitude ΔF/F), individual data points: single replicates; for Activation threshold concentration TAS2R39: lowest concentration with significantly increased fluorescence vs empty vector (p < 0.01). It counts as cell-based. Here is the method:
This set of bile acids was chosen because of their commercial availability in high purities, their diversity within the class of bile acids and their previous detection and quantitation in human blood. Stock solutions were prepared in DMSO.
As basal growth medium for the HEK293T-Gα16gust44 cell line[17],[59] served Dulbecco’s modified eagle medium (DMEM) (Thermo Fisher Scientific, Darmstadt, Germany) supplemented with 10 % fetal bovine serum (Sigma-Aldrich, Steinheim, Germany), 2 mM L-glutamine (Sigma-Aldrich, Steinheim, Germany), 100 units/ml penicillin (Sigma Aldrich, Steinheim, Germany) and 100 µg/ml streptomycin (Sigma Aldrich, Steinheim, Germany). Growth conditions were 37 °C, 5 % CO2 and saturated air-humidity[60].
HEK293T-Gα16gust44 cells were seeded on poly-D-lysine (10 µg/ml) coated 96-well plates to reach a confluence of 40-60 % the next day. For transient transfection 150 ng of plasmid DNA containing the receptor of interest and 0.3 µl lipofectamine 2000 (Thermo Fisher Scientific, Darmstadt, Germany) per well were used and transfection took place according to the manual of lipofectamine 2000. […] The empty vector DNA (mock) was transfected as negative control[14],[41].
Cells were loaded using the calcium-sensitive fluorescent dye Fluo-4-AM (Abcam, Cambridge, Great Britain) in the presence of 2.5 mM probenecid (Sigma-Aldrich, Steinheim, Germany) the day after transfection[13],[41]. 1 h after loading, cells were washed with C1 buffer using a BioTek Cell Washer, incubated in the dark for half an hour and washed again. For automated agonist application and measurement of fluorescence changes, a FLIPR^TETRA device (Molecular Devices, San José, United States) was used. Viability of cells was tested by application of 100 nM Somatostatin 14 (Bachem, Bubendorf, Switzerland)[42].
Measured data were negative control corrected by subtracting the signal of the mock-transfected cells and exported to Microsoft Excel using the FLIPR software ScreenWorks 4.2. In Microsoft Excel software, standardization of maximum fluorescence intensities to the basal fluorescence and normalization to the buffer-only control was done to calculate the relative fluorescence changes (ΔF/F).
Initial screening experiments performed in duplicate wells were confirmed by at least one replication and representative traces were selected for display. All dose-response relationships were determined by three independent experiments (biological replicates) performed in duplicates (technical replicates). Threshold concentrations, defined as lowest substance concentrations leading to statistically significant elevated fluorescence changes in receptor-transfected cells compared with empty vector-transfected cells, were determined using SigmaPlot with Student’s t-test to evaluate statistical significance (p < 0.01).

With `C[C@H](CCC(=O)O)[C@H]1CC[C@H]2[C@@H]3[C@H](O)C[C@@H]4C[C@H](O)CC[C@]4(C)[C@H]3C[C@H](O)[C@]12C` [Cholic Acid, cholic acid], the “Efficacy = maximal amplitude (ΔF/F)” value is reported as 0.2007 and the “Activation threshold concentration TAS2R39” value is recorded as 300 µM. Further, the “Efficacy (maximal amplitude ΔF/F), individual data points” value (“Efficacy (maximal amplitude ΔF/F)” below) (listed as CA) was 0.15 and 0.2304 and 0.2216.

As for `C[C@H](CCC(=O)NCC(=O)O)[C@H]1CC[C@H]2[C@@H]3[C@H](O)C[C@@H]4C[C@H](O)CC[C@]4(C)[C@H]3C[C@H](O)[C@]12C` [Glycocholic Acid, glycocholic acid], the “Efficacy = maximal amplitude (ΔF/F)” value turned out to be 0.1303 and the “Activation threshold concentration TAS2R39” value was 300 µM. Under “Conc. 0,01 mM”, the “Δ F/F” value turned out to be 0.001299. The “Δ F/F” value (Conc. 0,1 mM) is on record as 0.005941. The “Δ F/F” value (Conc. 0,03 mM) stood at 0.007895. For the same compound, where the note is “Conc. 0,3 mM”, the “Δ F/F” value is on record as 0.02136. Where the note is “Conc. 0,001 mM”, the “Δ F/F” value came to 0.004486. For the same compound, the “Δ F/F” value (Conc. 1 mM) worked out at 0.1303. Besides, the “Δ F/F” value (Conc. 0,003 mM) was determined as 0.004867. In addition, the “Efficacy (maximal amplitude ΔF/F)” value (listed as GCA) was 0.1116 and 0.125 and 0.1542.

Turning to `C[C@H](CCC(=O)NCCS(=O)(=O)O)[C@H]1CC[C@H]2[C@@H]3[C@H](O)C[C@@H]4C[C@H](O)CC[C@]4(C)[C@H]3C[C@H](O)[C@]12C` [Taurocholic Acid, taurocholic acid], the “Efficacy = maximal amplitude (ΔF/F)” value worked out at 0.155 and the “Activation threshold concentration TAS2R39” value was 300 µM. Under “Conc. 0,01 mM”, the “Δ F/F” value is 0.002616. In addition, the “Δ F/F” value (Conc. 0,1 mM) worked out at 0.007681. Moreover, the “Δ F/F” value (Conc. 0,03 mM) is 0.00381. The “Δ F/F” value (Conc. 0,3 mM) is 0.02945. Where the note is “Conc. 0,001 mM”, the “Δ F/F” value is -0.001111. In addition, for the setting “Conc. 1 mM”, the “Δ F/F” value came out at 0.155. Moreover, the “Δ F/F” value (Conc. 0,003 mM) was 0.0008114. In addition, the “Efficacy (maximal amplitude ΔF/F)” value (listed as TCA) was 0.1385 and 0.1739 and 0.1528.
